Here are results for 17 compounds from ChEMBL document CHEMBL4261623, “Synthesis, computational studies and antiproliferative activities of coumarin-tagged 1,3,4-oxadiazole conjugates against MDA-MB-231 and MCF-7 human breast cancer cells” (Bioorg Med Chem, 2018).

Usually IC50 stands for the concentration that gives 50% inhibition.

The subject of experiment [1] is MCF7. Kind of experiment: Antiproliferative activity against human MCF7 cells after 24 hrs by MTT assay. The experiment is classed as functional, cell-based. The following applies: MCF7, 24 h. On the technique in general: Tetrazolium assays rely on reduction of a dye to a coloured formazan, in cell work by metabolically active cells.
Experiment [2] has as its system MDA-MB-231. The experiment can be described thus: Antiproliferative activity against human MDA-MB-231 cells after 24 hrs by MTT assay. The experiment is classed as functional, cell-based. The following applies: MDA-MB-231, 24 h.
The subject of experiment [3] is MDA-MB-231. Kind of experiment: Potency index, ratio of tamoxifen IC50 to compound IC50 for antiproliferative activity against human MDA-MB-231 cells. The experiment is classed as functional.
In experiment [4] the test system is MCF7. The experiment can be described thus: Potency index, ratio of tamoxifen IC50 to compound IC50 for antiproliferative activity against human MCF7 cells. In kind it is functional.

In the case of `CC/C(=C(\c1ccccc1)c1ccc(OCCN(C)C)cc1)c1ccccc1` [TAMOXIFEN], the IC50 amounted to 7.09 µM in experiment [1] and 47.1 µM in experiment [2].
With `CCCSc1nnc(COc2cc(C)c3c(C)cc(=O)oc3c2)o1`, the IC50 in experiment [1] and in experiment [2] was above 100 µM in each case.
As for `CSc1nnc(COc2cc(C)c3c(C)cc(=O)oc3c2)o1`, the IC50 in experiment [1] and in experiment [2] was above 100 µM throughout.
Take `Cc1cc(OCc2nnc(SCc3ccccc3)o2)cc2oc(=O)cc(C)c12`: the IC50 in experiment [1] and in experiment [2] was above 100 µM each time.
Consider `CCCCCCS(=O)(=O)c1nnc(COc2cc(C)c3c(C)cc(=O)oc3c2)o1`, for which the IC50 in experiment [1] and in experiment [2] was above 100 µM throughout.
`CCCS(=O)(=O)c1nnc(COc2cc(C)c3c(C)cc(=O)oc3c2)o1`: the “Ratio IC50” value in experiment [3] is given as 7. Also, the half-maximal inhibitory concentration (IC50) in experiment [1] was above 100 µM; in experiment [2], 7.07 µM.
Consider `CCS(=O)(=O)c1nnc(COc2cc(C)c3c(C)cc(=O)oc3c2)o1`, for which the IC50 in experiment [1] and in experiment [2] was above 100 µM each time.
With `CCCCCSc1nnc(COc2cc(C)c3c(C)cc(=O)oc3c2)o1`, the IC50 in experiment [1] and in experiment [2] was above 100 µM each time.
Consider `CCCCSc1nnc(COc2cc(C)c3c(C)cc(=O)oc3c2)o1`, for which the IC50 in experiment [1] and in experiment [2] was above 100 µM in each case.
With `Cc1cc(OCc2nnc(SCc3ccc(Cl)cc3Cl)o2)cc2oc(=O)cc(C)c12`, the IC50 in experiment [1] is below 5 µM; in experiment [2] it was above 100 µM. In addition, the “Ratio IC50” value in experiment [4] came to 1.4.
As for `Cc1cc(OCc2nnc(SCc3ccc(F)c(F)c3)o2)cc2oc(=O)cc(C)c12`, the IC50 in experiment [1] was 33.3 µM; in experiment [2], above 100 µM.
In the case of `Cc1cc(OCc2nnc(S(=O)(=O)Cc3cccc(F)c3)o2)cc2oc(=O)cc(C)c12`, the 50% inhibitory concentration (IC50) was determined as 70.4 µM in experiment [1] and 21.3 µM in experiment [2].
Regarding `Cc1cc(OCc2nnc(S(=O)(=O)Cc3ccccc3)o2)cc2oc(=O)cc(C)c12`, the “Ratio IC50” value in experiment [3] is listed as 7. Also, the IC50 in experiment [1] was 38.6 µM; in experiment [2], 7.07 µM.
As to `CCSc1nnc(COc2cc(C)c3c(C)cc(=O)oc3c2)o1`, the IC50 in experiment [1] and in experiment [2] was above 100 µM throughout.
As for `Cc1cc(OCc2nnc(SCc3cccc(F)c3)o2)cc2oc(=O)cc(C)c12`, the IC50 in experiment [1] is 26 µM; in experiment [2], above 100 µM.
For the compound `CCCCCCSc1nnc(COc2cc(C)c3c(C)cc(=O)oc3c2)o1`, the IC50 in experiment [1] and in experiment [2] was above 100 µM throughout.
With `Cc1cc(OCc2nnc(S(=O)(=O)Cc3ccc(F)c(F)c3)o2)cc2oc(=O)cc(C)c12`, the IC50 in experiment [1] came to 55.2 µM; in experiment [2], 31.6 µM.
